{"source": "ChEMBL document CHEMBL4622831", "about": "“Anti-diabetic drugs recent approaches and advancements” (Bioorg Med Chem, 2020)", "key": {"[1]": {"molecular_target": "T1, Glucose-dependent insulinotropic receptor (Homo sapiens, UniProt Q8TDV5)", "T1 sequence (Q8TDV5 whole entry)": "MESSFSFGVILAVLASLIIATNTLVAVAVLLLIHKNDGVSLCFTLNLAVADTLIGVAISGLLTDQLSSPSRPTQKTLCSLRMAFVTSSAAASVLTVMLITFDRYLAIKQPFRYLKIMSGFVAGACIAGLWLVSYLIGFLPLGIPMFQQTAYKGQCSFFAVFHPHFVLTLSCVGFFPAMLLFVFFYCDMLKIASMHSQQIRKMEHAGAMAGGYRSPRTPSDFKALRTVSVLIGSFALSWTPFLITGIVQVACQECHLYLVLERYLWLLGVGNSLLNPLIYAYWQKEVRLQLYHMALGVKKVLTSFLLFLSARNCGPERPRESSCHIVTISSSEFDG", "test": "Agonist activity at human GPR119"}, "Dipeptidyl peptidase 4 [2]": {"molecular_target": "T2, Dipeptidyl peptidase 4 (Homo sapiens, UniProt P27487)", "T2 sequence (P27487 whole entry)": "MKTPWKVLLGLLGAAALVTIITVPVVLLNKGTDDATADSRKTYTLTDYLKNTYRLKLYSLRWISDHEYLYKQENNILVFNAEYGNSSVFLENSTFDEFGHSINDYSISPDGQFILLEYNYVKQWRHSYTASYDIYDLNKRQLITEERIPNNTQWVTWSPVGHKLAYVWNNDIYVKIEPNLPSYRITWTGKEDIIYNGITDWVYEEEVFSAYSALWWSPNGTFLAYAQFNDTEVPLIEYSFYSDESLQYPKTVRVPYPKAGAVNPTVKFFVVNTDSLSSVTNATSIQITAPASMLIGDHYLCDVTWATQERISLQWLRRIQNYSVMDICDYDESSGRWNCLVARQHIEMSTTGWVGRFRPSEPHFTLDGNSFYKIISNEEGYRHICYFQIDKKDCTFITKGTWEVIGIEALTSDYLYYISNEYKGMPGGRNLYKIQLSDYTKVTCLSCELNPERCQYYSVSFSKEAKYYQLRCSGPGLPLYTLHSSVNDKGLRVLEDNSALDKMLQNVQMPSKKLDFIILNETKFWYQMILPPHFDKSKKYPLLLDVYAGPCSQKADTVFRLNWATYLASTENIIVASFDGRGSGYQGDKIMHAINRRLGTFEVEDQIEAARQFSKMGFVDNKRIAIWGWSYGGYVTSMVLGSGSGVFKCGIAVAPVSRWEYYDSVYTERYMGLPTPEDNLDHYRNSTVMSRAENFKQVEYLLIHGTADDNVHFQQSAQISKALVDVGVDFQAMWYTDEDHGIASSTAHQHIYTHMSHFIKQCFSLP", "test": "Inhibition of recombinant human DPP4 using Gly-Pro-AMC as substrate preincubated for 10 mins followed by substrate addition"}, "[3]": {"molecular_target": "T3, Peroxisome proliferator-activated receptor gamma (Homo sapiens, UniProt P37231)", "T3 sequence (P37231 whole entry)": "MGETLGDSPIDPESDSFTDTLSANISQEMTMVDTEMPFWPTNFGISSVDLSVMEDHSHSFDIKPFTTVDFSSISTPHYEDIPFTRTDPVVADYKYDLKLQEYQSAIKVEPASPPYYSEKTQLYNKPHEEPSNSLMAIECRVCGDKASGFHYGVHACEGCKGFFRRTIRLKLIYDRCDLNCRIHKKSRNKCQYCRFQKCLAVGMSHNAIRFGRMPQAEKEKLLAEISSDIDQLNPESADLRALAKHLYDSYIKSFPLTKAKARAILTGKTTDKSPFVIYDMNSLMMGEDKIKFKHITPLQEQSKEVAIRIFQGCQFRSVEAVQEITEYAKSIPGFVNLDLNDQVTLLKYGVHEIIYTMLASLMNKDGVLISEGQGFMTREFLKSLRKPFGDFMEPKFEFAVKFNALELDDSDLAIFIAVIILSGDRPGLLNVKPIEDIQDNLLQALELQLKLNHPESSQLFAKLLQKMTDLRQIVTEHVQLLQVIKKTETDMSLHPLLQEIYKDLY", "description": "Agonist activity at PPARgamma (unknown origin)"}, "Rattus norvegicus": {"organism": "Rattus norvegicus", "test": "animal or person", "settings": "Wistar", "description": "Antidiabetic activity in Wistar rat assessed as reduction in glucose levels"}, "Mus musculus": {"organism": "Mus musculus", "test": "animal or person", "settings": "KK-A y", "description": "Antidiabetic activity in KK-A y mouse assessed as reduction in glucose levels"}, "Dipeptidyl peptidase 4 [4]": {"molecular_target": "T2, Dipeptidyl peptidase 4", "test": "Inhibition of recombinant human DPP4 using Gly-Pro-AMC as substrate preincubated for 10 mins followed by substrate addition by florescence assay"}, "[5]": {"molecular_target": "Free fatty acid receptor 1 (Homo sapiens, UniProt O14842)", "sequence (O14842 whole entry)": "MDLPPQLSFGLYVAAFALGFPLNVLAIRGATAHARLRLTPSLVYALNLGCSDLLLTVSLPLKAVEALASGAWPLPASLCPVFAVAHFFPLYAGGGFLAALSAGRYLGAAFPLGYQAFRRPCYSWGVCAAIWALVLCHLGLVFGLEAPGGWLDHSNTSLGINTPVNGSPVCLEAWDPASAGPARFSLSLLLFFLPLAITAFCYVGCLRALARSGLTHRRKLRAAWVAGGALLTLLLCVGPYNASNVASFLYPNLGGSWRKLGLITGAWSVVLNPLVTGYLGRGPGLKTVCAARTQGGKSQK", "description": "Modulation of GPR40 (unknown origin)"}, "[6]": {"molecular_target": "T4, Sodium/glucose cotransporter 2 (Homo sapiens, UniProt P31639)", "T4 sequence (P31639 whole entry)": "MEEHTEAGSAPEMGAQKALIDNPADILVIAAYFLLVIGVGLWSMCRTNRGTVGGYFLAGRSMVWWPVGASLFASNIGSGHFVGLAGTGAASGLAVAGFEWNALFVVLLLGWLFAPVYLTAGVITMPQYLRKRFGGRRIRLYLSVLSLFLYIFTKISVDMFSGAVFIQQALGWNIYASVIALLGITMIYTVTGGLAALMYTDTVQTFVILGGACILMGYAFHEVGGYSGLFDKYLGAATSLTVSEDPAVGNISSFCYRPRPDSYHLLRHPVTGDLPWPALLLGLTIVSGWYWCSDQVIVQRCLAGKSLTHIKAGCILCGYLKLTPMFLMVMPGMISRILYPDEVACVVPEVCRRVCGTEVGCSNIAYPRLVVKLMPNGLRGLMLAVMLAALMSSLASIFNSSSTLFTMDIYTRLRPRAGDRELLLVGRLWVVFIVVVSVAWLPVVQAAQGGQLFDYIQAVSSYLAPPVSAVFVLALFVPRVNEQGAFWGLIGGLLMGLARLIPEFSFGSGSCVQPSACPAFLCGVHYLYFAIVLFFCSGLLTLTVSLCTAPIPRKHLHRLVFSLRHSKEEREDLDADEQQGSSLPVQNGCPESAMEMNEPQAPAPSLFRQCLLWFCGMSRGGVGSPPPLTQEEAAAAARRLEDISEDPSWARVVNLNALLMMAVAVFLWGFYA", "test": "Inhibition of human SGLT2"}, "[7]": {"molecular_target": "T5, Sodium/glucose cotransporter 1 (Homo sapiens, UniProt P13866)", "T5 sequence (P13866 whole entry)": "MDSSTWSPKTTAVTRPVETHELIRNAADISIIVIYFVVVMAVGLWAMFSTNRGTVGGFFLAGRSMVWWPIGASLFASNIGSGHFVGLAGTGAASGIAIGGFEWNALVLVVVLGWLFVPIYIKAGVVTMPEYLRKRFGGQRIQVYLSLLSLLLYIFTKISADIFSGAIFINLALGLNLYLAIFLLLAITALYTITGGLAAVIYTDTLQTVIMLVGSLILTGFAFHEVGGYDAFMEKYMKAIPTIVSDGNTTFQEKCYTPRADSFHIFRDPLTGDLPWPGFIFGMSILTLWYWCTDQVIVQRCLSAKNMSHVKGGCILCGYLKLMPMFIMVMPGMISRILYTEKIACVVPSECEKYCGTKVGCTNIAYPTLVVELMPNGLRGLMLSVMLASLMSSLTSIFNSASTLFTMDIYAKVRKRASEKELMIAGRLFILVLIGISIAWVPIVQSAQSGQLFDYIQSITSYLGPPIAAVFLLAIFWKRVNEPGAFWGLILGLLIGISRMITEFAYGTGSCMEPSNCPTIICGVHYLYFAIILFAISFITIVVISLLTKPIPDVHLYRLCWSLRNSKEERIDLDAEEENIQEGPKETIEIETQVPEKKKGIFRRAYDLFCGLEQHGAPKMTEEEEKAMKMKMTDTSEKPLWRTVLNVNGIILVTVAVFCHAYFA", "test": "Inhibition of human SGLT1"}, "[8]": {"test": "Inhibition of Saccharomyces cerevisiae alpha-glucosidase using p-nitrophenyl glucopyranoside as substrate preincubated for 10 mins followed by substrate addition measured after 20 mins by spectrophotometric analysis"}, "[9]": {"test": "Toxicity in mouse", "assay_type": "organism-based", "settings": "in vivo"}}}
{"smiles": "CC(C)(C)OC(=O)N1C2CCC1CC(Nc1nc(Nc3ccc(S(C)(=O)=O)cc3F)nc3c1CCCC3)C2", "note": "(stereo unspecified)", "values": [{"measurement": "EC50", "setting": "[1]", "value": 270, "unit": "nM"}]}
{"smiles": "CC#CCn1c(N2CCC[C@@H](N)C2)cc(=O)n(Cc2cn(CC(=O)N(C)C)nn2)c1=O", "values": [{"measurement": "IC50", "setting": "Dipeptidyl peptidase 4 [2]", "value": 28.6, "unit": "nM"}]}
{"smiles": "COc1cc(CCC[C@H]2OC(=O)NC2=O)ccc1OCc1nc(-c2ccco2)oc1C", "values": [{"measurement": "EC50", "setting": "[3]", "value": 8.87, "unit": "nM"}, {"measurement": "ED25", "setting": "Rattus norvegicus", "value": 0.05, "unit": "mg/kg/day"}, {"measurement": "ED25", "setting": "Mus musculus", "value": 0.0561, "unit": "mg/kg/day"}]}
{"smiles": "Cc1ccc(NS(=O)(=O)c2ccc3c(c2)CCCC3)cc1", "values": [{"measurement": "IC50", "setting": "Dipeptidyl peptidase 4 [4]", "value": 2.8, "unit": "nM"}]}
{"smiles": "COc1cc(N2CCC(Oc3ccc(N4N=C(C(F)(F)F)[C@@H](C)C4CC(=O)O)cc3)C(C)C2)c(Cl)cn1", "note": "(stereo partly specified)", "values": [{"measurement": "EC50", "setting": "[5]", "value": 71, "unit": "nM"}]}
{"smiles": "ONC[C@H]1C[C@@H](n2cc(Cc3ccc(C4CC4)cc3)c3c(Cl)cccc32)[C@H](O)[C@@H](O)[C@@H]1O", "values": [{"measurement": "EC50", "setting": "[6]", "value": 33, "unit": "nM"}, {"measurement": "EC50", "setting": "[7]", "value": 37, "unit": "nM"}]}
{"smiles": "COc1ccc2c(c1)C(SCC(=O)NCc1ccc(C)cc1)c1ccc(Cl)cc1C2", "note": "(stereo unspecified)", "values": [{"measurement": "IC50", "setting": "[8]", "value": 80000, "unit": "nM"}]}
{"smiles": "N#C[C@@H]1CCCN1C(=O)CNC12CC3CC(CC(O)(C3)C1)C2", "note": "[VILDAGLIPTIN]", "values": [{"measurement": "MTD", "setting": "[9]", "value": 2000, "unit": "mg/kg"}]}
